Reference: ChEMBL document CHEMBL1201862, “PubChem BioAssay data set” (2004)
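These data come from cells grown in 96-well plates and exposed to compound for 48 hours at five concentrations. At the GI50, growth is halved.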 The source made the active and inactive calls. No stated cut-off is given here; in the data, active = GI50 up to about 1.1 µM and inactive = higher.

Experiments:
Assay in all cases: DTP human tumour cell line panel, 48 h
UO-31 = tested on: UO-31
OVCAR-8 = tested on: OVCAR-8
LOX IMVI = tested on: LOX IMVI
SK-OV-3 = tested on: SK-OV-3
SF-268 = tested on: SF-268
NCI-H460 = tested on: NCI-H460
HCT-116 = tested on: HCT-116
Malme-3M = tested on: Malme-3M
SK-MEL-28 = tested on: SK-MEL-28
CAKI-1 = tested on: CAKI-1
SK-MEL-2 = tested on: SK-MEL-2
T47D = tested on: T47D
EKVX = tested on: EKVX
SNB-19 = tested on: SNB-19
HOP-62 = tested on: HOP-62
RXF 393 = tested on: RXF 393
SN12C = tested on: SN12C
A549 = tested on: A549
KM12 = tested on: KM12
NCI/ADR-RES = tested on: NCI/ADR-RES
NCI-H23 = tested on: NCI-H23
K562 = tested on: K562
SK-MEL-5 = tested on: SK-MEL-5
DU-145 = tested on: DU-145
U-251 = tested on: U-251
M14 = tested on: M14
IGROV-1 = tested on: IGROV-1
MCF7 = tested on: MCF7
NCI-H226 = tested on: NCI-H226
Hs-578T = tested on: Hs-578T
A498 = tested on: A498
OVCAR-5 = tested on: OVCAR-5
HOP-92 = tested on: HOP-92
TK-10 = tested on: TK-10
RPMI-8226 = tested on: RPMI-8226
PC-3 = tested on: PC-3
SR = tested on: SR
OVCAR-4 = tested on: OVCAR-4
ACHN = tested on: ACHN
SW-620 = tested on: SW-620
UACC-62 = tested on: UACC-62
HCC 2998 = tested on: HCC 2998
NCI-H522 = tested on: NCI-H522
HL-60 = tested on: HL-60
SF-539 = tested on: SF-539
MDA-MB-435 = tested on: MDA-MB-435
HT-29 = tested on: HT-29
OVCAR-3 = tested on: OVCAR-3
HCT-15 = tested on: HCT-15
BT-549 = tested on: BT-549
UACC-257 = tested on: UACC-257
786-0 = tested on: 786-0
SF-295 = tested on: SF-295
CCRF-CEM = tested on: CCRF-CEM
MOLT-4 = tested on: MOLT-4
MDA-N = tested on: MDA-N
MDA-MB-231 = tested on: MDA-MB-231
COLO 205 = tested on: COLO 205
SNB-75 = tested on: SNB-75
M19-MEL = tested on: M19-MEL
LXFL 529 = tested on: LXFL 529
KM-20L2 = tested on: KM-20L2
DMS-114 = tested on: DMS-114
SNB-78 = tested on: SNB-78

O=[N+]([O-])c1ccc(Cl)cc1/C=N/C12CC3CC(CC(C3)C1)C2
GI50 (UO-31): 76.7 µM (inactive)
GI50 (OVCAR-8): 43.1 µM (inactive)
GI50 (LOX IMVI): 19.6 µM (inactive)
GI50 (SK-OV-3): > 100 µM (inactive)
GI50 (SF-268): 50.2 µM (inactive)
GI50 (NCI-H460): > 74 µM (inactive)
GI50 (HCT-116): 5.24 µM (inactive)
GI50 (Malme-3M): 43.6 µM (inactive)
GI50 (SK-MEL-28): 76.9 µM (inactive)
GI50 (CAKI-1): > 100 µM (inactive)
GI50 (SK-MEL-2): > 66.8 µM (inactive)
GI50 (T47D): 37.4 µM (inactive)
GI50 (EKVX): > 100 µM (inactive)
GI50 (SNB-19): 59.6 µM (inactive)
GI50 (HOP-62): 60.8 µM (inactive)
GI50 (RXF 393): 53.1 µM (inactive)
GI50 (SN12C): 51.6 µM (inactive)
GI50 (A549): > 96.8 µM (inactive)
GI50 (KM12): 29 µM (inactive)
GI50 (NCI/ADR-RES): 30.1 µM (inactive)
GI50 (NCI-H23): 50.9 µM (inactive)
GI50 (K562): 4.98 µM (inactive)
GI50 (SK-MEL-5): 56.6 µM (inactive)
GI50 (DU-145): > 100 µM (inactive)
GI50 (U-251): 33.2 µM (inactive)
GI50 (M14): 45.5 µM (inactive)
GI50 (IGROV-1): 55.7 µM (inactive)
GI50 (MCF7): 31.3 µM (inactive)
GI50 (NCI-H226): 61.5 µM (inactive)
GI50 (Hs-578T): 51.8 µM (inactive)
GI50 (A498): > 100 µM (inactive)
GI50 (OVCAR-5): > 100 µM (inactive)
GI50 (HOP-92): 79.1 µM (inactive)
GI50 (TK-10): > 100 µM (inactive)
GI50 (RPMI-8226): 20.2 µM (inactive)
GI50 (PC-3): 35.9 µM (inactive)
GI50 (SR): 7.03 µM (inactive)
GI50 (OVCAR-4): 63.5 µM (inactive)
GI50 (ACHN): > 87.9 µM (inactive)
GI50 (SW-620): 22 µM (inactive)
GI50 (UACC-62): 30.6 µM (inactive)
GI50 (HCC 2998): > 82.4 µM (inactive)
GI50 (NCI-H522): > 100 µM (inactive)
GI50 (HL-60): 5.77 µM (inactive)
GI50 (SF-539): 31.7 µM (inactive)
GI50 (MDA-MB-435): 47.6 µM (inactive)
GI50 (HT-29): 30.6 µM (inactive)
GI50 (OVCAR-3): 46.9 µM (inactive)
GI50 (HCT-15): 25.6 µM
GI50 (BT-549): > 55.7 µM (inactive)
GI50 (UACC-257): > 31.6 µM (inactive)
GI50 (786-0): 41.1 µM (inactive)
GI50 (SF-295): 57.3 µM (inactive)
GI50 (CCRF-CEM): 5.64 µM (inactive)
GI50 (MOLT-4): 18.5 µM (inactive)
GI50 (MDA-N): 52.5 µM (inactive)
GI50 (MDA-MB-231): 40.3 µM (inactive)
GI50 (COLO 205): 45 µM (inactive)
GI50 (SNB-75): > 68.1 µM (inactive)

C=CCOc1ccccc1/N=N/C(C#N)=N\Nc1ccccc1OCC=C
GI50 (UO-31): > 100 µM (inactive)
GI50 (OVCAR-8): > 100 µM (inactive)
GI50 (LOX IMVI): > 100 µM (inactive)
GI50 (SK-OV-3): > 100 µM (inactive)
GI50 (SF-268): > 100 µM (inactive)
GI50 (NCI-H460): > 100 µM (inactive)
GI50 (HCT-116): > 100 µM (inactive)
GI50 (Malme-3M): > 100 µM (inactive)
GI50 (SK-MEL-28): > 100 µM (inactive)
GI50 (CAKI-1): > 100 µM (inactive)
GI50 (SK-MEL-2): > 100 µM (inactive)
GI50 (T47D): > 100 µM (inactive)
GI50 (EKVX): > 100 µM (inactive)
GI50 (SNB-19): > 100 µM (inactive)
GI50 (HOP-62): > 100 µM (inactive)
GI50 (RXF 393): > 100 µM (inactive)
GI50 (SN12C): > 100 µM (inactive)
GI50 (A549): > 100 µM (inactive)
GI50 (KM12): > 100 µM (inactive)
GI50 (NCI/ADR-RES): > 100 µM (inactive)
GI50 (NCI-H23): > 100 µM (inactive)
GI50 (K562): > 100 µM (inactive)
GI50 (SK-MEL-5): > 100 µM (inactive)
GI50 (DU-145): > 100 µM (inactive)
GI50 (U-251): > 100 µM (inactive)
GI50 (M14): > 100 µM (inactive)
GI50 (IGROV-1): > 100 µM (inactive)
GI50 (MCF7): > 100 µM (inactive)
GI50 (NCI-H226): > 100 µM (inactive)
GI50 (Hs-578T): > 100 µM (inactive)
GI50 (A498): > 100 µM (inactive)
GI50 (OVCAR-5): > 100 µM (inactive)
GI50 (HOP-92): 62.1 µM (inactive)
GI50 (TK-10): > 100 µM (inactive)
GI50 (RPMI-8226): > 100 µM (inactive)
GI50 (PC-3): > 100 µM (inactive)
GI50 (SR): > 100 µM (inactive)
GI50 (OVCAR-4): > 100 µM (inactive)
GI50 (ACHN): > 100 µM (inactive)
GI50 (SW-620): > 100 µM (inactive)
GI50 (UACC-62): > 100 µM (inactive)
GI50 (HCC 2998): 48.1 µM (inactive)
GI50 (NCI-H522): > 100 µM (inactive)
GI50 (HL-60): > 100 µM (inactive)
GI50 (SF-539): > 100 µM (inactive)
GI50 (MDA-MB-435): 41.9 µM (inactive)
GI50 (HT-29): > 100 µM (inactive)
GI50 (OVCAR-3): > 100 µM (inactive)
GI50 (HCT-15): > 100 µM
GI50 (BT-549): > 100 µM (inactive)
GI50 (UACC-257): > 100 µM (inactive)
GI50 (786-0): > 100 µM (inactive)
GI50 (SF-295): > 100 µM (inactive)
GI50 (CCRF-CEM): > 100 µM (inactive)
GI50 (MOLT-4): > 100 µM (inactive)
GI50 (MDA-N): 27.2 µM (inactive)
GI50 (MDA-MB-231): > 100 µM (inactive)
GI50 (COLO 205): > 100 µM (inactive)
GI50 (SNB-75): > 100 µM (inactive)

CCc1c(O)c(O)c(C(C)=O)c2c(O)c(-c3c(C)cc4c(CC)c(O)c(O)c(C(C)=O)c4c3O)c(C)cc12
GI50 (UO-31): 6.49 µM (inactive)
GI50 (SK-OV-3): > 10 µM (inactive)
GI50 (SF-268): 11 µM (inactive)
GI50 (NCI-H460): 7.73 µM (inactive)
GI50 (HCT-116): 4.17 µM (inactive)
GI50 (Malme-3M): 16.7 µM (inactive)
GI50 (M19-MEL): 11.2 µM (inactive)
GI50 (SK-MEL-28): 10.9 µM (inactive)
GI50 (SK-MEL-2): 7.53 µM (inactive)
GI50 (SNB-19): 7.67 µM (inactive)
GI50 (HOP-62): 13.7 µM (inactive)
GI50 (RXF 393): 6.85 µM (inactive)
GI50 (KM12): 3.74 µM (inactive)
GI50 (NCI-H23): 2.82 µM (inactive)
GI50 (K562): 2.62 µM (inactive)
GI50 (U-251): 8.77 µM (inactive)
GI50 (M14): 8.75 µM (inactive)
GI50 (IGROV-1): 5.52 µM (inactive)
GI50 (OVCAR-5): 18.9 µM (inactive)
GI50 (HOP-92): 2.78 µM (inactive)
GI50 (RPMI-8226): 3.97 µM (inactive)
GI50 (SR): 38.3 µM (inactive)
GI50 (LXFL 529): 4.56 µM (inactive)
GI50 (OVCAR-4): 11.2 µM (inactive)
GI50 (ACHN): 12 µM (inactive)
GI50 (KM-20L2): 4.69 µM (inactive)
GI50 (UACC-62): 7.21 µM (inactive)
GI50 (NCI-H522): 2.92 µM (inactive)
GI50 (HL-60): 3.08 µM (inactive)
GI50 (SF-539): 9.04 µM (inactive)
GI50 (HT-29): 5.15 µM (inactive)
GI50 (OVCAR-3): 5.05 µM (inactive)
GI50 (DMS-114): 5.35 µM (inactive)
GI50 (SNB-78): 2.9 µM (inactive)
GI50 (UACC-257): 11.1 µM (inactive)
GI50 (SF-295): 3.03 µM (inactive)
GI50 (CCRF-CEM): 2.7 µM (inactive)
GI50 (COLO 205): 6.79 µM (inactive)
GI50 (SNB-75): 14.1 µM (inactive)
